Key:
Lygus rugulipennis [1] = assay: olfactometer experiments for attractant effect on true bugs; format: in vivo; details: for true bugs running in the direction of the attractant / attracting action: attractant concentration 0.01 μg/μL (FIG. 7)
Method: Comparative behavior studies were conducted on the bug species Lygus rugulipennis in the olfactometer for identifying suitable attractants (odors). The attracting action of a total of 28 different concentrations of substances and substance mixtures was determined in about 380 individual tests. A result was considered purely coincidental if 50% of the animals decided in favor of an odor and 50% decided against. The odor is considered attractive if more than about 65% of the animals move towards it. […] The certainty of the evaluation increases with the number of tests and is accepted after about 10 repetitions.

[2] = active substance release from liquid-core capsules in two manufacturing variants (headspace sampling, GC-MS); format: physicochemical; details: 1 week
Method: The experiment was conducted in principle as in the model system described in Section D in terms of odor collection and analysis using gas chromatography with mass spectrometry coupling. The following table and FIG. 6 summarize the results of the experiment.

[3] = loss in mass of alginate model cylinders with additives in the hydrogel; format: physicochemical
Method: The following table summarizes the absolute losses in mass for alginate model cylinders (d=13 mm, h=13 mm) after 240 minutes, with the addition of various additives in their most suitable concentrations and the relative losses in mass compared to the losses in mass of the standard specimen without the additives (MCC—microcrystalline cellulose, EC—ethyl cellulose).

Lygus rugulipennis [4] = assay: effect on true bugs after ingesting core liquid with active substance; format: in vivo
Method: Experiments were conducted with Lygus rugulipennis and the liquid-core capsules according to the invention, wherein an aqueous nutrient solution having 0.5% NeemAzal® T/S (biological active substance: azadirachtin 0.1%) was present in the core of the capsules. Another experiment was conducted with the chemical active substance acetamiprid (0.01%). When they had contact with the liquid-core capsules, the true bugs used their proboscis to pierce the outer shells of the liquid-core capsules and ingest at least some of the core solution. […] The animals were subjected to a 6-hour hunger phase prior to the beginning of the experiment. […] The lengthy dwell time of the proboscis in the capsule permits this conclusion. With the imago insects, this was an average of 160 seconds, 150 seconds with the nymphs. With the imago insects, this was preceded by a mean testing period (feeling the capsule with the proboscis) of about 30 seconds.
The true bugs ceased their activity nearly entirely about 1 day after ingesting the core liquid with the active substance azadirachtin and died after 5 days, on average. The chemical active substance acetamiprid took effect a few seconds after being ingested.

true bugs = assay: electrophysiological examinations (electroantennography) of true bugs; details: higher concentration (10 μg/μL, FIG. 9)
Method: Electroantennography is a method for measuring the olfactory reactions of an insect by recording electrical signals on the antennae, wherein slow changes in receptor potential that are preferably recorded in the extracellular space within the insect antenna are analyzed. Complex odor mixtures may be investigated using this method. For instance, the use of electroantennography for identifying attractants for wasps is known from DE 11 2010 005 095 T5.
FIGS. 8 and 9 summarize the results of electrophysiological examinations of true bugs. Green leaf volatiles (Z)-3-hexenyl acetate, (Z)-3-hexen-1-ol, 1-hexenal, the terpenoids (E)-β-caryophyllene, methyl salicylate, ocimene, phenylacetaldehyde, nonanal, alpha-pinene, and geraniol were tested as plant odors, hexyl butyrate and (E)-2-hexenyl butyrate were tested as pheromones of insects, and a synthetic active substance mixture made of (Z)-3-hexen-1-ol, (E)-β-caryophyllene, and hexyl butyrate were tested. FIG. 8 provides the responses in female (a) and male (b) true bugs at an active substance concentration of 0.1 μg/μL. FIG. 9 provides the responses in female (a) and male (b) true bugs at an active substance concentration of 10 μg/μL.

[5] = core: nutrient solution with 0.5% NeemAzal T/S (azadirachtin 0.1%)

| Structure (SMILES) | true bugs running in the direction of the attractant / attracting action (Lygus rugulipennis [1]) | change of attracting effect in increased concentrations (Lygus rugulipennis [1]; in vivo) | odor collected ([2]; capsules Type 1) [%] | quantity of odor per unit of time ([2]; capsules Type 1) [µg] | odor collected ([2]; capsules Type 2) [%] | quantity of odor per unit of time ([2]; capsules Type 2) [µg] | also measured |
| --- | --- | --- | --- | --- | --- | --- | --- |
| C=C1CC/C=C(\C)CC[C@@H]2[C@@H]1CC2(C)C [(E)-b-caryophyllene] | 80% | reduced | 6.8 | 205.2 | 26.0 | 781.0 | – |
| CC/C=C\CCO [(Z)-3-hexen-1-ol] | 80% | reduced | 0.5 | 15.2 | 7.8 | 235.1 | – |
| CCCCCCOC(=O)CCC [Hexyl butyrate] | – | – | 2.0 | 58.8 | 19.7 | 592.0 | attraction in olfactometer experiments (Lygus rugulipennis [1]; in vivo): not preferred |
| CCCCCCCCCCCCCCCCCC(=O)O [Stearic acid] | – | – | – | – | – | – | Loss in mass [%] after 240 min with additive (“Specimen”) ([3]; alginate model cylinders d=13 mm, h=13 mm, additive in its most suitable concentration): 6.92%; Specimen loss in mass after 240 min compared to Standard loss in mass [%] ([3]; relative to standard specimen without additive): −6.87% |
| C/C(=N\C#N)N(C)Cc1ccc(Cl)nc1 [acetamiprid] | – | – | – | – | – | – | time until active substance took effect after being ingested (Lygus rugulipennis [4]; acetamiprid 0.01% in core): a few seconds; time to death (Lygus rugulipennis [4]; acetamiprid 0.01% in core, after violent quivering): a few minutes later |
| C/C=C(\C)C(=O)O[C@H]1C[C@@H](OC(C)=O)[C@@]2(C(=O)OC)CO[C@H]3[C@@H](O)[C@@](C)([C@]45O[C@@]4(C)[C@H]4C[C@@H]5O[C@@H]5OC=C[C@@]54O)[C@H]4[C@]1(CO[C@]4(O)C(=O)OC)[C@@H]32 [azadirachtin] | – | – | – | – | – | – | time to death, on average (Lygus rugulipennis [4]; [5]): 5 days; time until activity ceased nearly entirely after ingesting the core liquid (Lygus rugulipennis [4]; [5]): about 1 day |
| CCCCCCCCC=O [nonanal] | about 45% | increases | – | – | – | – | attracting action (Lygus rugulipennis [1]; concentration 1 μg/μL): about 60%; registration by antennal chemoreceptors (true bugs): registered |
| O=CCc1ccccc1 [phenylacetaldehyde] | – | – | – | – | – | – | registration by antennal chemoreceptors (true bugs): registered |

From patent US11140897B2, “Liquid-core capsules for pest control” (Katz Biotech AG, priority 2015, dated 2021)
